Assay results: patent publication US10779532B2, “Methods and compositions for killing of insect pest eggs” (North Carolina State University, priority 2016, dated 2020)

Columns and labels:
[1] = test system: insect pest eggs; assay: Exposure of insect pest eggs to formulations, percent killed; format: in vivo
Text: As well understood, the percentage of eggs killed may depend on the concentration of the ovicide and the exposure time to the ovicide (e.g., the time for applying). Thus, applying or contacting of the compositions and formulations of the invention generally results in the killing of about 45% to about 100% (e.g., about 45, 50, 55, 60, 65, 70, 75, 80, 85, 90, 95, 100%) of the insect pest eggs for any given time period. However, the compositions and formulations are shown to work very quickly and efficiently, resulting in a killing of 100% of the insect pest eggs following a very short contact or application time. Thus, in some embodiments, a one to five second exposure results in a 100% kill of the insect pest eggs. In some embodiments, exposure of insect pest eggs to a formulation of 1% 2-undecanone and 1% DE for 3 seconds kills about 100% of the insect pest eggs. In some embodiments, exposure of insect pest eggs to a formulation of 8% 2-undecanone and 1% DE for 1 second kills about 100% of the insect pest eggs. In some embodiments, exposure of insect pest eggs to a formulation of 5% 2-undecanone for 1 second kills about 70% of the insect pest eggs. In some embodiments, exposure of insect pest eggs to a formulation of 15% 2-undecanone for about one to about five second kills about 100% of the insect pest eggs. […]

[2] = test system: lice; assay: Killing of lice stages; format: in vivo; conditions: all stages of the lice
[3] = test system: eggs; assay: Residual activity against eggs; format: in vivo; conditions: after application
[4] = Evaporation of 2-undecanone after application; format: physicochemical; conditions: typically
[5] = test system: cotton bollworm eggs; assay: Killing insect eggs, cotton bollworm model system (3 second dip, egg hatch over 4 days); format: in vivo; conditions: 2-undecanone from 1 to 8% in absolute ethanol, hatch assessed 4 days, highest level of the dose response
Text: Due to their obligate parasitic lifestyle, lice, head lice, in particular, are very difficult to obtain. Thus, bollworm eggs were used in place of lice eggs for the experiments showing efficacy of the treatments described herein. […] Therefore, it is understood that if the treatment works on bollworm eggs, it will also work on the eggs of head lice. Further, the experiments using body lice, a recognized proxy for head lice, confirmed the effectiveness of the treatment with the formulations of this invention.
All treatments were conducted by dipping the bollworm eggs in the different treatments for 3 seconds, allowing the eggs to dry at room temperature, and then assessing egg hatch for the following 4 days. The eggs typically hatch under these conditions in 2.5 days. The solvent used in these experiments was absolute ethanol.

SMILES: CCCCCCCCCC(C)=O [2-undecanone]
- insect pest eggs killed ([1]; 5% 2-undecanone, exposure 1 second): about 70%
- insect pest eggs killed ([1]; 15% 2-undecanone, exposure about one to about five second): about 100%
- killing of lice stages [2]: kill all stages of the lice
- residual activity against eggs [3]: minimal residual activity
- time to evaporate [4]: ≤ 30 min
- egg mortality [5]: about 90%
